Several values for one entry are separate records, joined by “and”; a condition that tells them apart may be missing. Identical values can stand only once.
Settings: [M+Cs]+; instrument: DT; stepped-field

Structure (SMILES) | collision cross section (N2) [Å²]
OC[C@H]1O[C@@H]2O[C@H]3[C@H](O)[C@@H](O)[C@@H](O[C@H]4[C@H](O)[C@@H](O)[C@@H](O[C@H]5[C@H](O)[C@@H](O)[C@@H](O[C@H]6[C@H](O)[C@@H](O)[C@@H](O[C@H]7[C@H](O)[C@@H](O)[C@@H](O[C@H]8[C@H](O)[C@@H](O)[C@@H](O[C@H]9[C@H](O)[C@@H](O)[C@@H](O[C@H]1[C@H](O)[C@H]2O)O[C@@H]9CO)O[C@@H]8CO)O[C@@H]7CO)O[C@@H]6CO)O[C@@H]5CO)O[C@@H]4CO)O[C@@H]3CO [Gamma-Cyclodextrin] | 338.2

Same assay, conditions: [M+H-H2O]+; instrument: DT; stepped-field

Structure (SMILES) | collision cross section (N2)
O=CC(OC1OC(CO)C(OC2OC(CO)C(O)C(O)C2O)C(OC2OC(CO)C(O)C(O)C2O)C1OC1OC(CO)C(O)C(O)C1O)C(OC1OC(CO)C(O)C(O)C1O)C(OC1OC(CO)C(O)C(O)C1O)C(COC1OC(CO)C(O)C(O)C1O)OC1OC(CO)C(O)C(O)C1O (configuration not stated) [(Hex)9] | 356.2 Å²
OCC1OC(OC2C(CO)OC(OC3C(CO)OC(OC4C(CO)OC(OC5C(CO)OC(OC6C(CO)OC(OC7C(CO)OC(OC8C(CO)OC(OC9C(CO)OC(OC%10C(CO)OC(OC%11C(CO)OC(OC%12C(CO)OC(O)C(O)C%12O)C(O)C%11O)C(O)C%10O)C(O)C9O)C(O)C8O)C(O)C7O)C(O)C6O)C(O)C5O)C(O)C4O)C(O)C3O)C(O)C2O)C(O)C(O)C1O (configuration not stated) [(Hex)12] | 400.3 Å² and 422.9 Å²

Same assay, conditions: [M+H]+; instrument: DT; stepped-field

Structure (SMILES) | collision cross section (N2) [Å²]
OC[C@H]1O[C@H](O[C@H]2[C@H](O)[C@@H](O)[C@@H](O[C@H]3[C@H](O)[C@@H](O)[C@@H](O[C@H]4[C@H](O)[C@@H](O)[C@@H](O[C@H]5[C@H](O)[C@@H](O)[C@@H](O[C@H]6[C@H](O)[C@@H](O)[C@@H](O[C@H]7[C@H](O)[C@@H](O)[C@@H](O)O[C@@H]7CO)O[C@@H]6CO)O[C@@H]5CO)O[C@@H]4CO)O[C@@H]3CO)O[C@@H]2CO)[C@H](O)[C@@H](O)[C@@H]1O [Maltoheptaose] | 303.3
CC(C)C[C@H](NC(=O)[C@@H](NC(=O)CN)C(C)C)C(=O)N[C@@H](Cc1c[nH]cn1)C(=O)N[C@@H](C)C(=O)N[C@H](C(=O)N[C@@H](CCCCN)C(=O)O)C(C)C [GVLHAVK] | 269.9
OC[C@H]1O[C@@H]2O[C@H]3[C@H](O)[C@@H](O)[C@@H](O[C@H]4[C@H](O)[C@@H](O)[C@@H](O[C@H]5[C@H](O)[C@@H](O)[C@@H](O[C@H]6[C@H](O)[C@@H](O)[C@@H](O[C@H]7[C@H](O)[C@@H](O)[C@@H](O[C@H]8[C@H](O)[C@@H](O)[C@@H](O[C@H]9[C@H](O)[C@@H](O)[C@@H](O[C@H]1[C@H](O)[C@H]2O)O[C@@H]9CO)O[C@@H]8CO)O[C@@H]7CO)O[C@@H]6CO)O[C@@H]5CO)O[C@@H]4CO)O[C@@H]3CO [Gamma-Cyclodextrin] | 322.6

Same assay, conditions: [M+K]+; instrument: DT; stepped-field

Structure (SMILES) | collision cross section (N2) [Å²]
OC[C@H]1O[C@H](O[C@H]2[C@H](O)[C@@H](O)[C@@H](O[C@H]3[C@H](O)[C@@H](O)[C@@H](O[C@H]4[C@H](O)[C@@H](O)[C@@H](O[C@H]5[C@H](O)[C@@H](O)[C@@H](O[C@H]6[C@H](O)[C@@H](O)[C@@H](O[C@H]7[C@H](O)[C@@H](O)[C@@H](O)O[C@@H]7CO)O[C@@H]6CO)O[C@@H]5CO)O[C@@H]4CO)O[C@@H]3CO)O[C@@H]2CO)[C@H](O)[C@@H](O)[C@@H]1O [Maltoheptaose] | 303.4
OC[C@H]1O[C@@H]2O[C@H]3[C@H](O)[C@@H](O)[C@@H](O[C@H]4[C@H](O)[C@@H](O)[C@@H](O[C@H]5[C@H](O)[C@@H](O)[C@@H](O[C@H]6[C@H](O)[C@@H](O)[C@@H](O[C@H]7[C@H](O)[C@@H](O)[C@@H](O[C@H]8[C@H](O)[C@@H](O)[C@@H](O[C@H]9[C@H](O)[C@@H](O)[C@@H](O[C@H]1[C@H](O)[C@H]2O)O[C@@H]9CO)O[C@@H]8CO)O[C@@H]7CO)O[C@@H]6CO)O[C@@H]5CO)O[C@@H]4CO)O[C@@H]3CO [Gamma-Cyclodextrin] | 324.8

Same assay, conditions: [M+Li]+; instrument: DT; stepped-field

Structure (SMILES) | collision cross section (N2) [Å²]
OC[C@H]1O[C@@H]2O[C@H]3[C@H](O)[C@@H](O)[C@@H](O[C@H]4[C@H](O)[C@@H](O)[C@@H](O[C@H]5[C@H](O)[C@@H](O)[C@@H](O[C@H]6[C@H](O)[C@@H](O)[C@@H](O[C@H]7[C@H](O)[C@@H](O)[C@@H](O[C@H]8[C@H](O)[C@@H](O)[C@@H](O[C@H]9[C@H](O)[C@@H](O)[C@@H](O[C@H]1[C@H](O)[C@H]2O)O[C@@H]9CO)O[C@@H]8CO)O[C@@H]7CO)O[C@@H]6CO)O[C@@H]5CO)O[C@@H]4CO)O[C@@H]3CO [Gamma-Cyclodextrin] | 317.7

Same assay, conditions: [M+Na-H2O]+; instrument: DT; stepped-field

Structure (SMILES) | collision cross section (N2)
CC(=O)NC1C(OC2C(O)C(CO)OC(OC(C(O)CO)C(O)C(O)C=O)C2O)OC(CO)C(O)C1O (configuration not stated) [HexNAc-(Hex)2] | 216.3 Å²
OCC1OC(OC2C(CO)OC(OC3C(CO)OC(OC4C(CO)OC(OC5C(CO)OC(OC6C(CO)OC(OC7C(CO)OC(OC8C(CO)OC(OC9C(CO)OC(OC%10C(CO)OC(OC%11C(CO)OC(OC%12C(CO)OC(O)C(O)C%12O)C(O)C%11O)C(O)C%10O)C(O)C9O)C(O)C8O)C(O)C7O)C(O)C6O)C(O)C5O)C(O)C4O)C(O)C3O)C(O)C2O)C(O)C(O)C1O (configuration not stated) [(Hex)12] | 390.6 Å² and 410 Å²

Same assay, conditions: [M+Na]+; instrument: DT; stepped-field

Structure (SMILES) | collision cross section (N2)
OC[C@H]1O[C@H](O[C@H]2[C@H](O)[C@@H](O)[C@@H](O[C@H]3[C@H](O)[C@@H](O)[C@@H](O[C@H]4[C@H](O)[C@@H](O)[C@@H](O[C@H]5[C@H](O)[C@@H](O)[C@@H](O[C@H]6[C@H](O)[C@@H](O)[C@@H](O[C@H]7[C@H](O)[C@@H](O)[C@@H](O)O[C@@H]7CO)O[C@@H]6CO)O[C@@H]5CO)O[C@@H]4CO)O[C@@H]3CO)O[C@@H]2CO)[C@H](O)[C@@H](O)[C@@H]1O [Maltoheptaose] | 303.1 Å²
CC=CCC=CCC=CCC=CCC=CCC=CCC=CCC=CCC(=O)OC[C@H](COP(=O)(O)OC[C@H](N)C(=O)O)OC(=O)CC=CCC=CCC=CCC=CCC=CCC=CCC=CCC=CC [PS(52:16)] | 322.2 Å²
CC/C=C\C/C=C\C/C=C\C/C=C\C/C=C\CCCC(=O)O[C@H](COC(=O)CCCC/C=C\C/C=C\C/C=C\C/C=C\CC)COP(=O)([O-])OCC[N+](C)(C)C [PC(38:9)] | 297.8 Å²
CCCCCCCCCCCCC=CC[C@@H](O)[C@H](CO[C@@H]1O[C@H](CO)[C@@H](O)C(O)C1O)NC(=O)CC=CCCCCCCCCCCCCCCCC (some centres not stated) [GlcCer(38:2)] | 291.4 Å²
OC[C@H]1O[C@@H]2O[C@H]3[C@H](O)[C@@H](O)[C@@H](O[C@H]4[C@H](O)[C@@H](O)[C@@H](O[C@H]5[C@H](O)[C@@H](O)[C@@H](O[C@H]6[C@H](O)[C@@H](O)[C@@H](O[C@H]7[C@H](O)[C@@H](O)[C@@H](O[C@H]8[C@H](O)[C@@H](O)[C@@H](O[C@H]9[C@H](O)[C@@H](O)[C@@H](O[C@H]1[C@H](O)[C@H]2O)O[C@@H]9CO)O[C@@H]8CO)O[C@@H]7CO)O[C@@H]6CO)O[C@@H]5CO)O[C@@H]4CO)O[C@@H]3CO [Gamma-Cyclodextrin] | 322.1 Å²
O=CC(OC1OC(CO)C(OC2OC(CO)C(O)C(O)C2O)C(OC2OC(CO)C(O)C(O)C2O)C1OC1OC(CO)C(O)C(O)C1O)C(OC1OC(CO)C(O)C(O)C1O)C(OC1OC(CO)C(O)C(O)C1O)C(COC1OC(CO)C(O)C(O)C1O)OC1OC(CO)C(O)C(O)C1O (configuration not stated) [(Hex)9] | 340.5 Å² and 351.9 Å²
CCCCCCCCCCCCC=CC[C@@H](O)[C@H](CO[C@@H]1O[C@H](CO)[C@@H](O)C(O)C1O)NC(=O)CC=CCC=CCCCCCCCCCCCCCCCCCC (some centres not stated) [GlcCer(43:3)] | 306.1 Å²
CC(=O)NC1C(OC2C(O)C(CO)OC(OC(C(O)CO)C(O)C(O)C=O)C2O)OC(CO)C(O)C1O (configuration not stated) [HexNAc-(Hex)2] | 220 Å²
CCCCCCCCCCCCC=CC[C@@H](O)[C@H](CO[C@@H]1O[C@H](CO)[C@@H](O)C(O)C1O)NC(=O)CC=CCC=CCCCCCCCCCCCCCCCCC (some centres not stated) [GlcCer(42:3)] | 302.3 Å²

Same assay, conditions: [M+Rb]+; instrument: DT; stepped-field

Structure (SMILES) | collision cross section (N2) [Å²]
OC[C@H]1O[C@@H]2O[C@H]3[C@H](O)[C@@H](O)[C@@H](O[C@H]4[C@H](O)[C@@H](O)[C@@H](O[C@H]5[C@H](O)[C@@H](O)[C@@H](O[C@H]6[C@H](O)[C@@H](O)[C@@H](O[C@H]7[C@H](O)[C@@H](O)[C@@H](O[C@H]8[C@H](O)[C@@H](O)[C@@H](O[C@H]9[C@H](O)[C@@H](O)[C@@H](O[C@H]1[C@H](O)[C@H]2O)O[C@@H]9CO)O[C@@H]8CO)O[C@@H]7CO)O[C@@H]6CO)O[C@@H]5CO)O[C@@H]4CO)O[C@@H]3CO [Gamma-Cyclodextrin] | 327.3

Settings: [M+H]+; instrument: TW; Major Mix IMS/Tof Calibration Kit (Waters)

Structure (SMILES) | collision cross section (N2) [Å²]
CN1CC[C@]23c4c5ccc(O)c4O[C@H]2[C@@H](O)C=C[C@H]3[C@H]1C5 [Morphine] | 164
COC(=O)[C@H]1[C@@H](OC(=O)c2ccccc2)C[C@@H]2CC[C@H]1N2C [Cocaine] | 169.8

The next lines start with the values.

collision cross section (N2) [Å²] | Structure (SMILES)
187.2 | CCOC(=O)[C@H](CCc1ccccc1)N[C@@H](C)C(=O)N1CCC[C@H]1C(=O)O [Enalapril]
184.5 | Cc1ccsc1C(=CCCN1CCC[C@@H](C(=O)O)C1)c1sccc1C [Tiagabine]
164.2 | CNCC[C@@H](Oc1ccccc1C)c1ccccc1 [Atomoxetine]
196.3 | CS(=O)(=O)c1ccc2c(c1)N(CCCN1CCC(C(N)=O)CC1)c1ccccc1S2 [Metopimazine]
176.8 | COc1ccc2c(c1)N(C[C@H](C)CN(C)C)c1ccccc1S2 [Levomepromazine]
211.7 | CCc1nn(CCCN2CCN(c3cccc(Cl)c3)CC2)c(=O)n1CCOc1ccccc1 [Nefazodone]
214.6 | Cc1ccc(NC(=O)c2ccc(CN3CCN(C)CC3)cc2)cc1Nc1nccc(-c2cccnc2)n1 [Imatinib]
166.9 | COc1ccc2c3c1O[C@H]1C[C@@H](O)C=C[C@@]31CCN(C)C2 [Galantamine]
193.2 | OCCN1CCN(CCCN2c3ccccc3Sc3ccc(Cl)cc32)CC1 [Perphenazine]

From the C3SDB collision cross section collection
